Measurements published in paper PMC10288505, “Photoswitchable Calixarene Activators for Controlled Peptide Transport across Lipid Membranes” (Journal of the American Chemical Society, 2023).

What was measured:
R4 = assay: Indicator displacement assay with host:LCG reporter pair, guest R4; format: binding; details: association constant, competitive dye displacement with LCG, 5 mM phosphate buffer pH 7.3, mean ± SD of triplicate
Excerpt: The binding affinity of the anionic calixarene activators toward cationic peptides was investigated using a small library of highly hydrophilic oligoarginines, from 3 to 8 residues. These peptides are not able to spontaneously transverse zwitterionic artificial membranes in vesicle assays, which allows the accurate evaluation of the calixarenes 1 and 2 as counterion activators without interferences from the transport of the peptide alone.[43]−[45] First, the formation of host–guest complexes between 1/2 and the selected peptides was verified by indicator displacement assays using lucigenin (LCG) as the fluorescent indicator.[46] As previously reported for other sulfonatocalixarene derivatives,[46] the formation of host–guest binding pairs between calixarenes 1/2 in the E- and Z-forms and LCG results in significant static fluorescence quenching (see Figure 2A and Figures S26 and S27). Quantitative analysis of the fluorescence titration data using a 1:1 host:guest binding model allows the determination of the respective binding constants (K) reported in Table 1. As can be observed, both 1/2 display high affinity for the LCG dye, on the 10^7 M^–1 range, which seems to be independent of the nature and conformation of the azobenzene arm. […] The host:LCG binding pairs were then employed in the above-mentioned indicator displacement assays to investigate the binding affinity of oligoarginines toward 1 and 2 (see Figure 2B and Figures S29–S33).
The binding affinities of the counterion activators and peptide complexes were analyzed by indicator displacement assays. The fluorescent dye chosen for these experiments was lucigenin (LCG) due to its complex with the receptor SC4 being well characterized and due to the high variation of emission between its bound and free form. Firstly, the affinity for LCG was calculated for each of the activators, by titrations followed by fluorescence spectroscopy leading to almost full quenching of the emission. For the competitive assays, a concentration of LCG and activator was chosen in order to have approximately 90% of complexed dye and that mixture was then titrated with each of the peptides, leading to the regaining of emission when LCG was release from the complex.
Figure S26 - Fluorescence titration of the lucigenin dye with increasing concentrations of A) E-1 and B) Z–1 in water (5 mM phosphate buffer pH 7.3). LCG concentration was fixed 0.2 µM in all experiments, except for the first E-1 titrations were [LCG]
(1 picture or pasted object on this page, not shown here)
Figure S29 - Indicator displacement titration of the several oligoarginines A) R3 B) R4 C) R6 and D) R8, using SC4:LCG as the reporter pair (5 mM phosphate buffer pH 7.3). LCG and SC4 concentrations were fixed at A) 0.22 and 0.50 µM, for all three replicates, B) 0.22 and 4.7 µM for the first titration and 0.22 and 4.3 µM for the remaining two replicates, C) 0.22 and 0.45 µM and 1.1 and 0.85 µM and D) 0.28 and 0.43 µM and 1.1 and 0.85 µM, respectively, from left to right.
Figure S30 - Indicator displacement titration of the several oligoarginines A) R3 B) R4 C) R6 and D) R8, using E-1:LCG as the reporter pair (5 mM phosphate buffer pH 7.3) LCG and E-1 concentrations were fixed at A) 0.11 and 0.25 µM, for all three replicates, B) 0.22 and 0.5 µM, for the first two titrations and 0.22 and 0.23 µM for the remaining replicate, C) 4.0 and 3.8 µM and 0.22 and 0.5 µM, D) 4 and 3 µM and 0.22 and 0.5 µM, respectively, from left to right. […]

[1] = Light-modulated CF dye efflux assay (in situ irradiation at 500 nm); format: biochemical
Method: To this aim, Z-1 and Z-2 were added to EYPC-LUV⊃CF dispersions at fixed concentrations to study the CF release upon in situ light stimulation. […] Irradiation with 500 nm light promotes the conversion of Z-2 into E-2, a stronger counterion activator, leading to ca. 50% of extra dye released as a result of the light-triggered translocation of R6 into the liposome (Figure 4 iii).
Figure 4 (A) Light-modulated dye efflux assays performed with 4 μM R6, 60 nM Z-2, and 15 μΜ EYPC-LUV⊃CF (50 mM CF inside the liposome) and (B) schematization of each phase in the assay. (i) First, the activator Z-2 was added to a liposome solution (ii) followed by the addition of the peptide. (iii) The same sample was irradiated for 25 min at 500 nm, leading to a significant increase in CF release. (iv) Finally, in order to normalize the measurement for the maximum emission possible, the vesicles were lysed by addition of a small aliquot of Triton X-100. […]
until the emission stabilizes and a maximum of release is reached. If the counterion activator has the capacity to activate the transport, CF should be co-transported to the exterior of the liposome with the influx of the counterion-peptide complex. Finally, Triton X-100 is added to the solution to dissolve the vesicles and obtain the maximum amount of CF that could be released from the liposomes and emit in the […]
EC50 and Ymax values were calculated from the values of corrected emission at the plateau that is reached, according to previously reported assays.7
Light-activated release assays. The light-modulation offered by this novel counterion activator was tested by performing dye efflux assays as previously described, with the addition of an interval in the measurement where the solution was irradiated at 500 nm. […]
Figure S44 - Light-modulated dye efflux assays done with the peptide A) R6, 4 µM, and B) R8, 5 µM, with a fixed concentration of Z-1 of 0.20 µM for both assays. 40 µM of EYPC-LUV and 20 µΜ EYPC-LUV⊃CF (50 mM of CF) were used in the first assay and 30 µM of EYPC-LUV and 7 µΜ EYPC-LUV⊃CF (50 mM of CF) were used in the latter. The assay was performed in the same way as the dye release assays (addition of the peptide marked with a red dashed arrow) with an additional irradiation step for an interval of 30 to 40 min (marked with a black arrow), leading to an increase in release of ~15% for the peptide R6 and only 7% for the peptide R8. […]
Figure S45 - Light-modulated dye efflux assay done with the peptide R8, 4 µM, with a fixed concentration of Z-2 of 16 nM. 15 µΜ of EYPC-LUV⊃CF (50 mM of CF) were used and the light activation step was done with a single 25 min irradiation cycle at 500 nm (marked with a black arrow). The increase of release obtained was of 14%. […]

SMILES: O=S(=O)([O-])c1cc2c(O)c(c1)Cc1cc(S(=O)(=O)[O-])cc(c1O)Cc1cc(S(=O)(=O)[O-])cc(c1OCCCCCCOc1ccc(/N=N/c3ccccc3)cc1)Cc1cc(S(=O)(=O)[O-])cc(c1O)C2.[Li+].[Li+].[Li+].[Li+] [E-1]
- Apparent affinity constant K for R4 (R4): (3.9 ± 0.3) × 10^7 M^–1

SMILES: CCCCc1ccc(/N=N/c2ccc(OCCCOc3c4cc(S(=O)(=O)[O-])cc3Cc3cc(S(=O)(=O)[O-])cc(c3O)Cc3cc(S(=O)(=O)[O-])cc(c3O)Cc3cc(S(=O)(=O)[O-])cc(c3O)C4)cc2)cc1.[Li+].[Li+].[Li+].[Li+] [E-2]
- Apparent affinity constant K for R4 (R4): (1.2 ± 0.6) × 10^8 M^–1

SMILES: O=S(=O)([O-])c1cc2c(O)c(c1)Cc1cc(S(=O)(=O)[O-])cc(c1O)Cc1cc(S(=O)(=O)[O-])cc(c1OCCCCCCOc1ccc(/N=N\c3ccccc3)cc1)Cc1cc(S(=O)(=O)[O-])cc(c1O)C2.[Li+].[Li+].[Li+].[Li+] [Z-1]
- Apparent affinity constant K for R4 (R4): (3.2 ± 0.7) × 10^7 M^–1
- Increase in CF release upon irradiation, R6 ([1]; 4 µM R6, 0.20 µM Z-1, 40 µM EYPC-LUV and 20 µM EYPC-LUV⊃CF (50 mM CF), irradiation 30 to 40 min at 500 nm): ~ 15%
- Increase in CF release upon irradiation, R8 ([1]; 5 µM R8, 0.20 µM Z-1, 30 µM EYPC-LUV and 7 µM EYPC-LUV⊃CF (50 mM CF), irradiation 30 to 40 min at 500 nm): 7%

SMILES: CCCCc1ccc(/N=N\c2ccc(OCCCOc3c4cc(S(=O)(=O)[O-])cc3Cc3cc(S(=O)(=O)[O-])cc(c3O)Cc3cc(S(=O)(=O)[O-])cc(c3O)Cc3cc(S(=O)(=O)[O-])cc(c3O)C4)cc2)cc1.[Li+].[Li+].[Li+].[Li+] [Z-2]
- Apparent affinity constant K for R4 (R4): (7.8 ± 1.3) × 10^7 M^–1
- Extra dye released upon irradiation at 500 nm, R6 ([1]; 4 μM R6, 60 nM Z-2, 15 μM EYPC-LUV⊃CF (50 mM CF), irradiated 25 min at 500 nm): ca. 50%
- Increase in CF release upon irradiation, R8 ([1]; 4 µM R8, 16 nM Z-2, 15 µM EYPC-LUV⊃CF (50 mM CF), single 25 min irradiation cycle at 500 nm): 14%
